{
  "source": "paper PMC11864979",
  "about": "“First-in-class ultralong-target-residence-time p38α inhibitors as a mitosis-targeted therapy for colorectal cancer” (Nature Cancer, 2025)",
  "assay_in_all_cases": "selectivity profiling in a panel of 340 wild-type kinases (Reaction Biology Europe)",
  "format_in_all_cases": "binding",
  "key": {"340 wild-type kinases [1]": {"biological_target": "T1, 340 wild-type kinases (Homo sapiens, UniProt Q07002)", "T1 construct": "purchased Reaction Biology Europe", "T1 sequence (Q07002 whole entry)": "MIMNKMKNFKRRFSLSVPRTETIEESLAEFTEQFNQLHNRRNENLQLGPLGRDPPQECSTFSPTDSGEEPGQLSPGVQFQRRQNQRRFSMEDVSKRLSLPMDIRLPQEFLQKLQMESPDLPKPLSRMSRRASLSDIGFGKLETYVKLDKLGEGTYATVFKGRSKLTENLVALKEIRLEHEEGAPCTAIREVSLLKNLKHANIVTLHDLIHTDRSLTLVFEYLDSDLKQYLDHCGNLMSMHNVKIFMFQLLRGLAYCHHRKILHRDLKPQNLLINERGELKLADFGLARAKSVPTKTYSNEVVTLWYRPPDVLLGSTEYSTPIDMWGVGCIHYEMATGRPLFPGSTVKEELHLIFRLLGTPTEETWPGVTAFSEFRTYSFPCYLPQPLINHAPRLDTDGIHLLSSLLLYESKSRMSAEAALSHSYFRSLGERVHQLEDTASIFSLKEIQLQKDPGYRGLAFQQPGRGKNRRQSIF"}, "340 wild-type kinases [2]": {"biological_target": "T2, 340 wild-type kinases (Homo sapiens, UniProt P68400)", "T2 construct": "purchased Reaction Biology Europe", "T2 sequence (P68400 whole entry)": "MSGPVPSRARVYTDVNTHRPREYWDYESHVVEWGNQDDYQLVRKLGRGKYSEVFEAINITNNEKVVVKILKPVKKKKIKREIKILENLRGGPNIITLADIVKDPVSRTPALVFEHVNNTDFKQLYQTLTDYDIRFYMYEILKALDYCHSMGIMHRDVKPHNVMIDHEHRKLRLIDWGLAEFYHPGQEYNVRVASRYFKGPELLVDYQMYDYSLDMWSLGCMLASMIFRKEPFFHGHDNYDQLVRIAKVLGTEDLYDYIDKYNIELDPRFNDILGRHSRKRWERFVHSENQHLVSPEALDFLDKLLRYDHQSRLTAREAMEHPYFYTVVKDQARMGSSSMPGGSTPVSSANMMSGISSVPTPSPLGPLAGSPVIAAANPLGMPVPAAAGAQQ"}, "340 wild-type kinases [3]": {"biological_target": "T3, 340 wild-type kinases (Homo sapiens, UniProt P09619)", "T3 construct": "purchased Reaction Biology Europe", "T3 sequence (P09619 33-1106)": "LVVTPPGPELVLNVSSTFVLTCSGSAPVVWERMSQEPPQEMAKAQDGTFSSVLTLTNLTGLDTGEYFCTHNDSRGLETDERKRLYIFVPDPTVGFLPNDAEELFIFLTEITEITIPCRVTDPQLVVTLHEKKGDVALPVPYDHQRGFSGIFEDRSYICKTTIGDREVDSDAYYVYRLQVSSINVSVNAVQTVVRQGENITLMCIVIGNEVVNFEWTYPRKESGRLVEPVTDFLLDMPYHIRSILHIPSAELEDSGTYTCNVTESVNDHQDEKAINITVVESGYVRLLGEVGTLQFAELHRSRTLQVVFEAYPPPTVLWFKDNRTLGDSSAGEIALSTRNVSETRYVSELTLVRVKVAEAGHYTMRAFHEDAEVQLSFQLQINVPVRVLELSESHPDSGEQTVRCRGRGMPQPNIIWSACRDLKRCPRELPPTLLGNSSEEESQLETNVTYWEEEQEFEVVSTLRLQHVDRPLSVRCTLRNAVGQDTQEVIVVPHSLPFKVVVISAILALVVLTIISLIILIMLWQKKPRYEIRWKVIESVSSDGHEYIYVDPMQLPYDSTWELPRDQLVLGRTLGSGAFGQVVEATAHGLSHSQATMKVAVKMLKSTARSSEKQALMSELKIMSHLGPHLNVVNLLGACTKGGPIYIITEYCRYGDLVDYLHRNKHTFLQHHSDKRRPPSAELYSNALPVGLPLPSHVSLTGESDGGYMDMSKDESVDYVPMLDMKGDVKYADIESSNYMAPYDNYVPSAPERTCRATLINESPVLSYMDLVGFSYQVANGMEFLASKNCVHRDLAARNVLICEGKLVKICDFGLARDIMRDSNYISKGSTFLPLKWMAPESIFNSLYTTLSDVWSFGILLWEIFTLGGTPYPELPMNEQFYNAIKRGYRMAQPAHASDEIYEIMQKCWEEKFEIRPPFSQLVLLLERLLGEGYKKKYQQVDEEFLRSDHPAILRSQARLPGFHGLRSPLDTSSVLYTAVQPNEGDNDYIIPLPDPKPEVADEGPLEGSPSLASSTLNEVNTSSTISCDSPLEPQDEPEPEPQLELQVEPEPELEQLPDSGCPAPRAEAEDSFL"}, "340 wild-type kinases [4]": {"biological_target": "T4, 340 wild-type kinases (Homo sapiens, UniProt Q86Z02)", "T4 construct": "purchased Reaction Biology Europe", "T4 sequence (Q86Z02 whole entry)": "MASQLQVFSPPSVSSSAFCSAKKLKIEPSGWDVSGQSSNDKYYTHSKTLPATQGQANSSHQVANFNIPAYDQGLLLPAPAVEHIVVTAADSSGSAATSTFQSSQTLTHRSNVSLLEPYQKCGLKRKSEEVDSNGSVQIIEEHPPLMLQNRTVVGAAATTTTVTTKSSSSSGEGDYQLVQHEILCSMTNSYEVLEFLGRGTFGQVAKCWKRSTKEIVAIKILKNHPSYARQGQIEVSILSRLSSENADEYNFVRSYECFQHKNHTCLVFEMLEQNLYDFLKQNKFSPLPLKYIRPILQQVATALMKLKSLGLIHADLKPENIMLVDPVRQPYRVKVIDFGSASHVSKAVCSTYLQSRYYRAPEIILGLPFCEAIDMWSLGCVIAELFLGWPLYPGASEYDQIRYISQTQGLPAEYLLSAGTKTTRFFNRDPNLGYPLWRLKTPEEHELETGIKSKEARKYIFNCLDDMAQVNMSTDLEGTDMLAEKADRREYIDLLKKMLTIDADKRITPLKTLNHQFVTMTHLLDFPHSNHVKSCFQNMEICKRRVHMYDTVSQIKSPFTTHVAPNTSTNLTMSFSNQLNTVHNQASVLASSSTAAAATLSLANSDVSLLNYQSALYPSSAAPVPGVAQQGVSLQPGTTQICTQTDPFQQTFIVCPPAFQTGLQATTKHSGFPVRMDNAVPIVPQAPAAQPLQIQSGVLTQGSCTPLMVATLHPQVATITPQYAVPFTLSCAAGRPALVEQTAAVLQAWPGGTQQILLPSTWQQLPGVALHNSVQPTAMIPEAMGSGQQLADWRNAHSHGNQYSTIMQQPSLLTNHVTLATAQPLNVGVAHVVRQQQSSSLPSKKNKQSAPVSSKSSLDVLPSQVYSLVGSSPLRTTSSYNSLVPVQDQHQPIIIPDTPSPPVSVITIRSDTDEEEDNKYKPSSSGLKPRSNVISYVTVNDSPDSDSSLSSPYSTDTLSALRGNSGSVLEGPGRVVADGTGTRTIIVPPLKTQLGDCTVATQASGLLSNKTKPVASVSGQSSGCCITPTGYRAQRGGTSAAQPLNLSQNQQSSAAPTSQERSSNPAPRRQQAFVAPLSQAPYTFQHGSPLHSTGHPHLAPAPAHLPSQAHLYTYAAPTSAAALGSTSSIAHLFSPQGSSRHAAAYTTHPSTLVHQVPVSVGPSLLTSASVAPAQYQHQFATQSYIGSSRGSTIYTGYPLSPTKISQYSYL"}, "340 wild-type kinases [5]": {"biological_target": "T5, 340 wild-type kinases (Homo sapiens, UniProt Q9H0K1)", "T5 construct": "purchased Reaction Biology Europe"}, "340 wild-type kinases [6]": {"biological_target": "T6, 340 wild-type kinases (Homo sapiens, UniProt P51617)", "T6 construct": "purchased Reaction Biology Europe", "T6 sequence (P51617 whole entry)": "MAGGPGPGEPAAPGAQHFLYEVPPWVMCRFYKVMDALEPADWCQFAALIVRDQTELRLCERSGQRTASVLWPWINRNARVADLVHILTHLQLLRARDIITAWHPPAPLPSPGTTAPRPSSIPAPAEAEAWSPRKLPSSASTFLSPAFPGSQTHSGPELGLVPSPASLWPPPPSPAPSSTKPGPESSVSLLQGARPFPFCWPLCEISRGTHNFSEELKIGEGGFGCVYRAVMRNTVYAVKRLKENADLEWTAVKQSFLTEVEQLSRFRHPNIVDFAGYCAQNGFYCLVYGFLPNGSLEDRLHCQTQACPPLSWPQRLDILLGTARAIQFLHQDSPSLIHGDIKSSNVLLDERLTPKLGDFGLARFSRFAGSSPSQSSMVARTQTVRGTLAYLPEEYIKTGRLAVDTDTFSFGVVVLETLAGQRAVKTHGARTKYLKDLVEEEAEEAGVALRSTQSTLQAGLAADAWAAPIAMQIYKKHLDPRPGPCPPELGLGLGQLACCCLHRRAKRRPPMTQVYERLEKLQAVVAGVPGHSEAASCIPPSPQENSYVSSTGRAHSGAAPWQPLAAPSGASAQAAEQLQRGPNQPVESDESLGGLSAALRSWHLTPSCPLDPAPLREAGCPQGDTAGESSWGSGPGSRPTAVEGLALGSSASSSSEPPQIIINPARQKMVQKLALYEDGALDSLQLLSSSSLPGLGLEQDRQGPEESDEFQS"}, "340 wild-type kinases [7]": {"biological_target": "T7, 340 wild-type kinases (Homo sapiens, UniProt Q96L34)", "T7 construct": "purchased Reaction Biology Europe", "T7 sequence (Q96L34 1-752)": "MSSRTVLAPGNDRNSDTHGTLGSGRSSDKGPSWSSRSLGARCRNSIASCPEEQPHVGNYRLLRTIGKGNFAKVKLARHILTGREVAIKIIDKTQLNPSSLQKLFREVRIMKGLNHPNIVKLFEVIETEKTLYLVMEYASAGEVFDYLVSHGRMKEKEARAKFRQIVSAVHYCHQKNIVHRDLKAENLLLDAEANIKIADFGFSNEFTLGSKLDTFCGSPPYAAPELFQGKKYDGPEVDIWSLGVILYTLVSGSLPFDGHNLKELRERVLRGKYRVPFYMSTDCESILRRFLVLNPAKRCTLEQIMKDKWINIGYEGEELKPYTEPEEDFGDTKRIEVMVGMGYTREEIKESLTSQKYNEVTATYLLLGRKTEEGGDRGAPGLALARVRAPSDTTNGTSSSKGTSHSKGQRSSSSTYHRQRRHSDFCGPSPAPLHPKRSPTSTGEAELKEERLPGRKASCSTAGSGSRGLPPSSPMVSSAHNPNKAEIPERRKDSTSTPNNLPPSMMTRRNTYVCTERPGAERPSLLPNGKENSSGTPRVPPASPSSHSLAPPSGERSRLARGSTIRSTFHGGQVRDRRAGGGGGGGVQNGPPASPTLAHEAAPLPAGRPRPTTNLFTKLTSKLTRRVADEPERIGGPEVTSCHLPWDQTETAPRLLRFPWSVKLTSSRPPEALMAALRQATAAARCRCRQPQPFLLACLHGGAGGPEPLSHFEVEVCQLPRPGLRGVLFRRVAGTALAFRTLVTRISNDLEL"}, "340 wild-type kinases [8]": {"biological_target": "T8, 340 wild-type kinases (Homo sapiens, UniProt O15264)", "T8 construct": "purchased Reaction Biology Europe", "T8 sequence (O15264 1-365)": "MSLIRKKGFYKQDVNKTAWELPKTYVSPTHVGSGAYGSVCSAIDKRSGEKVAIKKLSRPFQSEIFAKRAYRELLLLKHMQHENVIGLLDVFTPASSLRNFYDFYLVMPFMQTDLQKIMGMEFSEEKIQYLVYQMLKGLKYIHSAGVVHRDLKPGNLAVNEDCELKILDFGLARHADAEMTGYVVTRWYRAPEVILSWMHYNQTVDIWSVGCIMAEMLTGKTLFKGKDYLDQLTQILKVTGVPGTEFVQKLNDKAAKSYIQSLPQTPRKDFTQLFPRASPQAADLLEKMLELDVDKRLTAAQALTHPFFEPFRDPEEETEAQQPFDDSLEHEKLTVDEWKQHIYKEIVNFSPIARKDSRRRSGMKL"}, "340 wild-type kinases [9]": {"biological_target": "T9, 340 wild-type kinases (Homo sapiens, UniProt P49841)", "T9 construct": "purchased Reaction Biology Europe", "T9 sequence (P49841 whole entry)": "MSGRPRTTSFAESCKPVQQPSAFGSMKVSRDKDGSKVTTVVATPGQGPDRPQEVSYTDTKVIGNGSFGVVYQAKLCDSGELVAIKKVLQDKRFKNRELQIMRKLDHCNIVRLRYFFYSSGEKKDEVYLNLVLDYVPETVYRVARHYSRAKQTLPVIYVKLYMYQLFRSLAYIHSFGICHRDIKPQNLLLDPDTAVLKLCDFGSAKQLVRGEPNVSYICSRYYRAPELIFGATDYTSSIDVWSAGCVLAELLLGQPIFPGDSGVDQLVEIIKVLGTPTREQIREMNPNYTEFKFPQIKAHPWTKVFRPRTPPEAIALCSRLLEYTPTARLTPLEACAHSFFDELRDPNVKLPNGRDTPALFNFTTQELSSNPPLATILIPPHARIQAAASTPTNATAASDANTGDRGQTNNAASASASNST"}, "340 wild-type kinases [10]": {"biological_target": "T10, 340 wild-type kinases (Homo sapiens, UniProt P36897)", "T10 construct": "purchased Reaction Biology Europe", "T10 sequence (P36897 34-503)": "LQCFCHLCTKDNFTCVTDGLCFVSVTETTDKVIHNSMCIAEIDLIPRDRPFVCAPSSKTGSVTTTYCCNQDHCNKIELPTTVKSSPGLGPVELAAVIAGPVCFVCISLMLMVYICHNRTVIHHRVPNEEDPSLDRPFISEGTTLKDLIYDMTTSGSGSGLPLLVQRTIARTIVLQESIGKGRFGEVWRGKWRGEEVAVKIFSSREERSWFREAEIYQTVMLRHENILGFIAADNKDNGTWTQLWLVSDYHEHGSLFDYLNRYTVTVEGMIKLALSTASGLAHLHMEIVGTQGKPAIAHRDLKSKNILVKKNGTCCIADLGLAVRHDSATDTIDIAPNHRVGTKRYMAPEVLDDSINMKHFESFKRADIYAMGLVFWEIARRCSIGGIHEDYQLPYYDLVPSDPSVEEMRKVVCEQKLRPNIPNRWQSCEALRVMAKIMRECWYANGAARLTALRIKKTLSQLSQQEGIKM"}, "340 wild-type kinases [11]": {"biological_target": "T11, 340 wild-type kinases (Homo sapiens, UniProt P49336)", "T11 construct": "purchased Reaction Biology Europe", "T11 sequence (P49336 whole entry)": "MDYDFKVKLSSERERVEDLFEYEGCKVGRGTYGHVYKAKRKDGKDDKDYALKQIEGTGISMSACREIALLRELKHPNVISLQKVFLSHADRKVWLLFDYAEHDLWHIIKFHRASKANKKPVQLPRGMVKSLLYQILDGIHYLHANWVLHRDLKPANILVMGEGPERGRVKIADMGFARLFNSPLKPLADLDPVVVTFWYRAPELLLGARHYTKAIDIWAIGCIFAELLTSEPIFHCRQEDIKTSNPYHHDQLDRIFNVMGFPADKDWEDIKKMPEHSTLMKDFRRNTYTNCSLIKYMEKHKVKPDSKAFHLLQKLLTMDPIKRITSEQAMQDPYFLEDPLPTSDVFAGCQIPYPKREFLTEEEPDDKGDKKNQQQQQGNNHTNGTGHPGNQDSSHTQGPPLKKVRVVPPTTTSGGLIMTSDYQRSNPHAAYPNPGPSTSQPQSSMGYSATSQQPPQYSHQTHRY"}},
  "note": "Like-named read-outs stand apart in the source and are kept apart here.",
  "data": [
    {"smiles": "CNC(=O)c1ccc2c(c1)C(=O)c1ccc(Nc3ccc(F)c(NC(=O)C4CC4)c3)cc1CC2", "note": "[Compound 2015]", "values": [
      {"measurement": "remaining activity at 0.2 µM", "setting": "340 wild-type kinases [1]; 0.2 µM 2015, read-out: CDK18/CycY residual activity", "result": 102, "unit": "%"},
      {"measurement": "remaining activity at 1 µM", "setting": "340 wild-type kinases [1]; 1 µM 2015, read-out: CDK18/CycY residual activity", "result": 92.8, "unit": "%"},
      {"measurement": "remaining activity at 0.2 µM", "setting": "340 wild-type kinases [1]; CDK18/CycY, 0.2 µM, read-out: residual activity", "result": 102, "unit": "%"},
      {"measurement": "remaining activity at 1 µM", "setting": "340 wild-type kinases [1]; CDK18/CycY, 1 µM, read-out: residual activity", "result": 92.8, "unit": "%"},
      {"measurement": "remaining activity at 0.2 µM", "setting": "340 wild-type kinases [2]; 0.2 µM 2015, read-out: CK2alpha1 residual activity", "result": 98.8, "unit": "%"},
      {"measurement": "remaining activity at 1 µM", "setting": "340 wild-type kinases [2]; 1 µM 2015, read-out: CK2alpha1 residual activity", "result": 95.8, "unit": "%"},
      {"measurement": "remaining activity at 0.2 µM", "setting": "340 wild-type kinases [2]; CK2alpha1, 0.2 µM, read-out: residual activity", "result": 98.8, "unit": "%"},
      {"measurement": "remaining activity at 1 µM", "setting": "340 wild-type kinases [2]; CK2alpha1, 1 µM, read-out: residual activity", "result": 95.8, "unit": "%"},
      {"measurement": "remaining activity at 0.2 µM", "setting": "340 wild-type kinases [3]; 0.2 µM 2015, read-out: PDGFRbeta residual activity", "result": 101, "unit": "%"},
      {"measurement": "remaining activity at 1 µM", "setting": "340 wild-type kinases [3]; 1 µM 2015, read-out: PDGFRbeta residual activity", "result": 101, "unit": "%"},
      {"measurement": "remaining activity at 0.2 µM", "setting": "340 wild-type kinases [3]; PDGFRbeta, 0.2 µM, read-out: residual activity", "result": 101, "unit": "%"},
      {"measurement": "remaining activity at 1 µM", "setting": "340 wild-type kinases [3]; PDGFRbeta, 1 µM, read-out: residual activity", "result": 101, "unit": "%"},
      {"measurement": "remaining activity at 0.2 µM", "setting": "340 wild-type kinases [4]; 0.2 µM 2015, read-out: HIPK1 residual activity", "result": 98.9, "unit": "%"},
      {"measurement": "remaining activity at 1 µM", "setting": "340 wild-type kinases [4]; 1 µM 2015, read-out: HIPK1 residual activity", "result": 102, "unit": "%"},
      {"measurement": "remaining activity at 0.2 µM", "setting": "340 wild-type kinases [4]; HIPK1, 0.2 µM, read-out: residual activity", "result": 98.9, "unit": "%"},
      {"measurement": "remaining activity at 1 µM", "setting": "340 wild-type kinases [4]; HIPK1, 1 µM, read-out: residual activity", "result": 102, "unit": "%"},
      {"measurement": "remaining activity at 0.2 µM", "setting": "340 wild-type kinases [5]; 0.2 µM 2015, read-out: SIK2 residual activity", "result": 101, "unit": "%"},
      {"measurement": "remaining activity at 1 µM", "setting": "340 wild-type kinases [5]; 1 µM 2015, read-out: SIK2 residual activity", "result": 98.1, "unit": "%"},
      {"measurement": "remaining activity at 0.2 µM", "setting": "340 wild-type kinases [5]; SIK2, 0.2 µM, read-out: residual activity", "result": 101, "unit": "%"},
      {"measurement": "remaining activity at 1 µM", "setting": "340 wild-type kinases [5]; SIK2, 1 µM, read-out: residual activity", "result": 98.1, "unit": "%"},
      {"measurement": "remaining activity at 0.2 µM", "setting": "340 wild-type kinases [6]; 0.2 µM 2015, read-out: IRAK1 residual activity", "result": 108, "unit": "%"},
      {"measurement": "remaining activity at 1 µM", "setting": "340 wild-type kinases [6]; 1 µM 2015, read-out: IRAK1 residual activity", "result": 94.2, "unit": "%"},
      {"measurement": "remaining activity at 0.2 µM", "setting": "340 wild-type kinases [6]; IRAK1, 0.2 µM, read-out: residual activity", "result": 108, "unit": "%"},
      {"measurement": "remaining activity at 1 µM", "setting": "340 wild-type kinases [6]; IRAK1, 1 µM, read-out: residual activity", "result": 94.2, "unit": "%"},
      {"measurement": "remaining activity at 0.2 µM", "setting": "340 wild-type kinases [7]; 0.2 µM 2015, read-out: MARK4 residual activity", "result": 94.8, "unit": "%"},
      {"measurement": "remaining activity at 1 µM", "setting": "340 wild-type kinases [7]; 1 µM 2015, read-out: MARK4 residual activity", "result": 84.1, "unit": "%"},
      {"measurement": "remaining activity at 0.2 µM", "setting": "340 wild-type kinases [7]; MARK4, 0.2 µM, read-out: residual activity", "result": 94.8, "unit": "%"},
      {"measurement": "remaining activity at 1 µM", "setting": "340 wild-type kinases [7]; MARK4, 1 µM, read-out: residual activity", "result": 84.1, "unit": "%"},
      {"measurement": "remaining activity at 0.2 µM", "setting": "340 wild-type kinases [8]; 0.2 µM 2015, read-out: p38delta residual activity", "result": 101, "unit": "%"},
      {"measurement": "remaining activity at 1 µM", "setting": "340 wild-type kinases [8]; 1 µM 2015, read-out: p38delta residual activity", "result": 90.6, "unit": "%"},
      {"measurement": "remaining activity at 0.2 µM", "setting": "340 wild-type kinases [8]; p38delta, 0.2 µM, read-out: residual activity", "result": 101, "unit": "%"},
      {"measurement": "remaining activity at 1 µM", "setting": "340 wild-type kinases [8]; p38delta, 1 µM, read-out: residual activity", "result": 90.6, "unit": "%"},
      {"measurement": "remaining activity at 0.2 µM", "setting": "340 wild-type kinases [9]; 0.2 µM 2015, read-out: GSK3beta residual activity", "result": 98.7, "unit": "%"},
      {"measurement": "remaining activity at 1 µM", "setting": "340 wild-type kinases [9]; 1 µM 2015, read-out: GSK3beta residual activity", "result": 86.4, "unit": "%"},
      {"measurement": "remaining activity at 0.2 µM", "setting": "340 wild-type kinases [9]; GSK3beta, 0.2 µM, read-out: residual activity", "result": 98.7, "unit": "%"},
      {"measurement": "remaining activity at 1 µM", "setting": "340 wild-type kinases [9]; GSK3beta, 1 µM, read-out: residual activity", "result": 86.3, "unit": "%"},
      {"measurement": "remaining activity at 0.2 µM", "setting": "340 wild-type kinases [10]; 0.2 µM 2015, read-out: TGFBR1 residual activity", "result": 84.1, "unit": "%"},
      {"measurement": "remaining activity at 1 µM", "setting": "340 wild-type kinases [10]; 1 µM 2015, read-out: TGFBR1 residual activity", "result": 90.9, "unit": "%"},
      {"measurement": "remaining activity at 0.2 µM", "setting": "340 wild-type kinases [10]; TGFBR1, 0.2 µM, read-out: residual activity", "result": 84.1, "unit": "%"},
      {"measurement": "remaining activity at 1 µM", "setting": "340 wild-type kinases [10]; TGFBR1, 1 µM, read-out: residual activity", "result": 90.9, "unit": "%"},
      {"measurement": "remaining activity at 0.2 µM", "setting": "340 wild-type kinases [11]; 0.2 µM 2015, read-out: CDK8/CycC residual activity", "result": 92.5, "unit": "%"},
      {"measurement": "remaining activity at 1 µM", "setting": "340 wild-type kinases [11]; 1 µM 2015, read-out: CDK8/CycC residual activity", "result": 85.2, "unit": "%"},
      {"measurement": "remaining activity at 0.2 µM", "setting": "340 wild-type kinases [11]; CDK8/CycC, 0.2 µM, read-out: residual activity", "result": 92.5, "unit": "%"},
      {"measurement": "remaining activity at 1 µM", "setting": "340 wild-type kinases [11]; CDK8/CycC, 1 µM, read-out: residual activity", "result": 85.2, "unit": "%"}
    ]}
  ]
}
